Values quoted from earlier work, collected in patent US7128928B2, “Ophthalmic formulation with novel gum composition” (Pharmacia Corporation, priority 2002, dated 2006).

System: infective gram-positive bacteria

SMILES: CC(=O)NC[C@H]1CN(c2ccc(N3CCOCC3)c(F)c2)C(=O)O1 [linezolid]
- MIC90: about 4 μg/ml
